Data reported in US20240182428A1, “PRODRUG OF CELECOXIB, PREPARATION METHOD THEREFOR AND APPLICATION THEREOF” (SHANGHAI INNOFORTUNE BOITECH CO. LTD., priority 2021, published 2024).
In brackets after ≈: the same amount, converted by molar mass. Read-outs that look alike come from different tables or passages of the source. Blank lines part the entries; values can stand above or below the compound they belong to.

Legend:
[1] = Solubility of SZY1907-P3 prototype and salt forms at different pH values
[2] = Table 1; cited from earlier work
[3] = pH 7
[4] = physchem
[5] = Stability (purity) of the prototype at different pH values; type: physicochemical
[6] = Ocular pharmacokinetic test: celecoxib content in eye tissues after ocular administration; type: in vivo, New Zealand rabbit; details: after ocular administration of eye drops
Excerpt: To compare the content of the active compound celecoxib in each eye tissue to screen out lead compound with excellent pharmacokinetic characteristics after the ocular administration of SZY1907-P3, SZY1907-P4 and celecoxib in New Zealand rabbits.
Grouping: 9 male New Zealand rabbits were randomly divided into 3 groups of 3 animals each.
Dosage: According to the formulation of Guangzhou Zhongshan Ophthalmic Center, the concentration of SZY1907-P3/P4 in eye drops is 0.1%. Thus, the dose of SZY1907-P3/P4 was set to 0.100 mg/New Zealand rabbit and the dose of celecoxib was 0.075 mg/New Zealand rabbit (close to the equimolar dose of SZY1907-P3/P4).
The administration method was consistent with the clinical method, which was, ophthalmic administration, and the rabbit left and right eyes were simultaneously administrated.
0.1% of SZY1907-P3 eye drops: 0.01000 g of SZY1907-P3 was weighed, 0.00500 g of Tween-80 and 0.04500 g of polyoxyethylene 40 hydrogenated castor oil were added, and stirred with a glass rod until the solution was in an emulsion shape. 5 mL of distilled water was added slowly while stirring, dissolved for later use. 0.09000 g of sodium chloride and 0.00125 g of 80% benzalkonium chloride were weighed, 2 mL of distilled water was added, and stirred to dissolve. The two solutions was combined and adjusted the volume to 10 mL. […]

Solubility ([1]; pH value 1): 40.47 mg/mL
Solubility ([1]; pH value 2): 0.08 mg/mL
Solubility ([1]; pH value 4): 0.1 mg/mL
Solubility ([1]; pH value 6): 0.09 mg/mL
Solubility ([1]; pH value 7): 0.09 mg/mL
Solubility ([1]; pH value 8): 0.1 mg/mL
Compound: NCCCCC(N)C(=O)O (centres unmarked) [lysinate]
Pka [2]: 2.16

Compound: fumarate
Solubility [3]: 0.09 mg/mL
Pka [2]: 3.03

Solubility ([1]; pH value 1): 42.9 mg/mL
Solubility ([1]; pH value 2): 25.72 mg/mL
Solubility ([1]; pH value 4): 1.28 mg/mL
Solubility ([1]; pH value 6): 0.47 mg/mL
Solubility ([1]; pH value 7): 0.09 mg/mL
Solubility ([1]; pH value 8): 0.1 mg/mL
Compound: phosphate

Solubility ([4]; aqueous buffer): 0.1 mg/mL (≈ 221 µM)
Solubility ([4]; pH 1, simulated gastric fluid): 83.5 mg/mL (≈ 184000 µM)
Solubility ([4]; pH 2, simulated gastric fluid): 1.02 mg/mL (≈ 2250 µM)
Solubility ([4]; pH 4, aqueous buffer): 0.08 mg/mL (≈ 177 µM)
Solubility ([4]; pH 6, aqueous buffer): 0.08 mg/mL (≈ 177 µM)
Solubility ([4]; pH 7, aqueous buffer): 0.09 mg/mL (≈ 199 µM)
Solubility ([4]; pH 8, aqueous buffer): 0.08 mg/mL (≈ 177 µM)
Solubility ([1]; Table 2, pH value 6.5-7.0): 0.09 mg/mL
Solubility ([1]; Table 2, pH value 7.0-7.5): 0.1 mg/mL
Purity at Day 0 ([5]; pH value 5.5-6.0): 99.85%
Purity at Day 1 ([5]; pH value 5.5-6.0): 99.32%
Purity at Day 2 ([5]; pH value 5.5-6.0): 99.67%
Purity at Day 5 ([5]; pH value 5.5-6.0): 99.63%
Purity at Day 0 ([5]; pH value 6.5-7.0): 99.88%
Purity at Day 1 ([5]; pH value 6.5-7.0): 100.00%
Purity at Day 2 ([5]; pH value 6.5-7.0): 99.74%
Purity at Day 5 ([5]; pH value 6.5-7.0): 99.87%
Purity at Day 0 ([5]; pH value 7.0-7.5): 99.81%
Purity at Day 1 ([5]; pH value 7.0-7.5): 100.00%
Purity at Day 2 ([5]; pH value 7.0-7.5): 99.70%
Purity at Day 5 ([5]; pH value 7.0-7.5): 99.84%
Compound: Cc1ccc(-c2cc(C(F)(F)F)nn2-c2ccc(S(=O)(=O)NC(=O)CCN)cc2)cc1 [prototype]

Drug concentration / distribution in ocular tissues (cornea, conjunctiva and aqueous humor), in words [6]: almost not detected
Compound: CNCCC(=O)NS(=O)(=O)c1ccc(-n2nc(C(F)(F)F)cc2-c2ccc(C)cc2)cc1 [SZY1907-P4]

Solubility, in words [1]: proper solubility
pH dependence of solubility, in words [1]: a certain pH dependence
Compound: Cc1ccc(-c2cc(C(F)(F)F)nn2-c2ccc(S(=O)(=O)NC(=O)CCN)cc2)cc1 [SZY1907-P3]
Stability under storage conditions, in words [5]: relatively stable under storage conditions

Drug concentration / distribution in ocular tissues (cornea, conjunctiva and aqueous humor), in words [6]: relatively low
Compound: Cc1ccc(-c2cc(C(F)(F)F)nn2-c2ccc(S(N)(=O)=O)cc2)cc1 [Celecoxib]
